Measurements as given in patent US20080188554A1, “METHODS OF TREATING AVIAN HYPERTENSION” (Regents of the University of California Office of …, priority 2006, published 2008).
Where two headings read alike, the source gives them in different places.

Experiments:
[1] = target: partially purified recombinant chicken sEH (Gallus gallus, UniProt Q45QT1); test: Inhibitor assay with fluorescent substrate PHOME; assay type: biochemical; details: PHOME 50 μM
Description: Dilutions of enzyme, inhibitors and substrate were made in BisTris-HCl buffer (25 mM, pH 7.0, 0.1 mg/ml BSA). The enzyme was incubated with 20 μL of inhibitor dilutions for 10 min prior to substrate addition. After this incubation, 50 μL of (3-phenyl-oxiranyl)-acetic acid cyano-(6-methoxy-naphthalen-2-yl)-methyl ester (PHOME) at a final concentration of 50 μM (1% final DMSO content per well) was added.
The inhibitor screen occurred in two steps. The first step was incubation with a final inhibitor concentration of 100 nM. Positive hits obtained in this primary screen were then incubated with inhibitors at final concentrations of 1, 10, and 100 nM.

mouse sEH [2] = target: T1, mouse sEH (Mus musculus, UniProt P34914); details: t-DPPO as substrate, from Morisseau 2000; cited from earlier work
T1 sequence (P34914 1-554): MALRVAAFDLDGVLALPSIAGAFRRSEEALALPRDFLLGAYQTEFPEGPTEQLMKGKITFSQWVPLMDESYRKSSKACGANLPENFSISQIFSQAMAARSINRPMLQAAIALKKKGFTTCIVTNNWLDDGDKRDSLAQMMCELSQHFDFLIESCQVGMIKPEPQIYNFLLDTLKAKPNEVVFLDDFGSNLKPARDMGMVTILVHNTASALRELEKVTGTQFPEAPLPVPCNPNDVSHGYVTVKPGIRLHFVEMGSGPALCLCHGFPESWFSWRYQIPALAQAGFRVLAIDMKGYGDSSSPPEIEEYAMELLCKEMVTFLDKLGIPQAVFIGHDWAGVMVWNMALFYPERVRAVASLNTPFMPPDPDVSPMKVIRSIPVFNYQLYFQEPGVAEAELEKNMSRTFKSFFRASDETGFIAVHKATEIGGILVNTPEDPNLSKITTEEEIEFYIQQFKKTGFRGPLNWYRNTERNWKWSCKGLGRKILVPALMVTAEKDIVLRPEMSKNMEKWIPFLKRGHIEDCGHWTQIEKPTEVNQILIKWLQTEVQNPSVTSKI

Recombinant chicken sEH [3] = target: T2, Recombinant chicken sEH (Gallus gallus, UniProt Q45QT1); test: Radiotracer epoxide hydrolase activity and kinetic parameters using t-DPPO as substrate; assay type: biochemical
Description: (§1) Epoxide hydrolase activity was measured using racemic [^3H]-trans-1,3-diphenylpropene oxide (t-DPPO) as substrate (Borhan, B. et al., Anal. Biochem. 231:188-200 (1995)). t-DPPO was previously synthesized and purified Borhan, B. et al., Anal. Biochem. 231:188-200 (1995)). 1 μL of a 5 mM solution of [^3H]t-DPPO in DMF was added to 100 μL of enzyme preparation in sodium phosphate buffer (0.1 M, pH 7.4) containing 0.1 mg/mL of BSA ([S]final=50 μM). The enzyme was incubated at 30 °C for 10 min, and the reaction quenched by addition of 60 μL of methanol and 200 μL of isooctane, which extracts the remaining epoxide from the aqueous phase. Extractions with 1-hexanol were performed in parallel to assess the possible presence of glutathione transferase activity which could also transform the substrate (Borhan, B. et al., Anal. Biochem. 231:188-200 (1995)). The activity was followed by measuring the quantity of radioactive diol formed in the aqueous phase using a scintillation counter (Wallac Model 1409, Gaithersburg, Md.). Assays were performed in triplicate.
A solution of [^3H] t-DPPO (1 μL in DMF) was added to 100 μL of enzyme preparation in sodium phosphate buffer (0.1 M, pH 7.4) containing 0.1 mg/mL of BSA ([S]final=50 μM). The Km determination was performed by fitting the data to the Michaelis-Menten equation using the nonlinear regression algorithm in SigmaPlot (SPSS, Inc., Chicago, Ill.) with an R-squared value of at least 0.97. The standard deviation was generated by performing the experiment three separate times in triplicate.

sEH = target: T3, sEH (Homo sapiens, UniProt P34913); details: t-DPPO as substrate, from Morisseau 2000; cited from earlier work
T3 sequence (P34913 1-555): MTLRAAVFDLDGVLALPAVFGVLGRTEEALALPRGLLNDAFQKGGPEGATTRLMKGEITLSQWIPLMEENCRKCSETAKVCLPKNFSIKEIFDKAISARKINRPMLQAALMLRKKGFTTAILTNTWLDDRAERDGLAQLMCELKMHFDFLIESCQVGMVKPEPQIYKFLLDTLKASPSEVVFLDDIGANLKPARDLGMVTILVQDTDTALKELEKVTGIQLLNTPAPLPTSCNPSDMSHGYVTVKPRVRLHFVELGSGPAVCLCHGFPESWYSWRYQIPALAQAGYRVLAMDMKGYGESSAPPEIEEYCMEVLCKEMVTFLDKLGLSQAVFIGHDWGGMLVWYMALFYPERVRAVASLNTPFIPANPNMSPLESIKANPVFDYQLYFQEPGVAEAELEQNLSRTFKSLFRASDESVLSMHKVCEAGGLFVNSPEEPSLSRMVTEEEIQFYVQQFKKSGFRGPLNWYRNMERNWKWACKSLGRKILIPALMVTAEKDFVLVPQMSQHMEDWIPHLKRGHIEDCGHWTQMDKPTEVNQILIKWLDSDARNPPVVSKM

Recombinant chicken sEH [4] = target: T2, Recombinant chicken sEH; test: Non-radioactive epoxide hydrolase assay (HPLC-MS/MS), specific activity of substrates; assay type: biochemical; details: for Specific activity: compound as substrate, 50 μM, 30° C., 10 min
Description: The trans-9,10-epoxystearate was purchased (Sigma-Aldrich). A 5 mM solution of each substrate was made in ethanol for the EETs and methanol for the epoxystearate. The substrate solution (1 μL) was added to 100 μL of enzyme preparation in sodium phosphate buffer (0.1 M, pH 7.4) containing 0.1 mg/mL of BSA ([S]final=50 μM). The enzyme was incubated with the substrate at 30° C. for 10 min, and the reaction quenched by addition of 400 μL of methanol. The products were analyzed by HPLC-MS/MS as previously described (Newman, J. W. et al., J. Lipid Res. 43:1563-1578 (2002)) with the following exceptions. A 2.0×20 mm, 3-μm Luna C18 Mercury MS column (Phenomenex, Torrance, Calif.) was used with a 350 μL/min isocratic flow of […] (vol/vol/vol) acetonitrile/water/methanol with 0.1% glacial acetic acid for 2.5 min. Assays were performed in triplicate.

mouse sEH [5] = target: T1, mouse sEH; details: compound as substrate, from Chacos 1983; cited from earlier work
[6] = test system: chicken sEH phosphatase activity; test: Phosphatase assay; assay type: biochemical; details: conditions developed for the mammalian enzyme phosphatase assay
Description: The phosphatase substrate, threo-9,10-phosphonooxy-hydroxy-octadecanoic acid was synthesized as previously described (Newman, J. W. et al., Proc. Natl. Acad. Sci. USA 100: 1558-1563 (2003)). The assay was performed and analyzed by HPLC-MS/MS as described (Newman, J. W. et al., Proc. Natl. Acad. Sci. USA 100:1558-1563 (2003)).

Recombinant chicken sEH [7] = target: T2, Recombinant chicken sEH; test: IC50 determination using [3H]-t-DPPO as substrate; assay type: biochemical
Description: The IC50 values reported herein were determined using racemic [^3H]-trans-1,3-diphenylpropene oxide (t-DPPO) as a substrate (Borhan, B. et al., Anal. Biochem. 231:188-200 (1995)). The inhibitors were synthesized as described (Morisseau, C. et al., Biochem. Pharmacol. 63:1599-1608 (2002)). Extracts of broiler hepatic cytosol or partially purified enzyme was diluted 50-fold in pH 7.4 0.1 M sodium phosphate buffer containing 0.1 mg/mL BSA, then incubated with the inhibitors for 5 min at 30° C. prior to substrate introduction. Prepared samples were incubated at 30° C. for 10 min and stopped as indicated above. Conditions used gave rates that were linear both with time and enzyme concentration. Assays were performed in triplicate. By definition, IC50 is the concentration of inhibitor that reduces enzyme activity by 50%. IC50 was determined by regression with a minimum of two points in the linear region of the curve on either side of the IC50 (for a total of 5 points). The curve was generated from at least three separate studies conducted in triplicate in order to obtain the standard deviation given in the results section.

[8] = substrate: c1ccc(CC2OC2c2ccccc2)cc1; test: Radiotracer epoxide hydrolase activity and kinetic parameters using t-DPPO as substrate; assay type: biochemical; details: other: t-DPPO as substrate; recombinant chicken sEH; pH 7.4; 30.0 °C
Description: as §1
A solution of [^3H] t-DPPO (1 μL in DMF) was added to 100 μL of enzyme preparation in sodium phosphate buffer (0.1 M, pH 7.4) containing 0.1 mg/mL of BSA ([S]final=50 μM). […]

[9] = partially purified recombinant chicken sEH, read-out: Chicken sEH IC50

O=C(NCCCc1ccccc1)NC1CCC(OCc2c(F)cccc2F)CC1 (stereo not drawn) [Compound 1318]
IC50 [1, 9]: 1.9 ± 0.1 nM

O=C(Nc1cccc(Br)c1)NC1CCC(OCc2c(F)cccc2F)CC1 (stereo not drawn) [Compound 1308]
IC50 [1, 9]: 2.4 ± 0.1 nM

c1ccc(CC2OC2c2ccccc2)cc1 (racemic) [t-DPPO, trans-1,3-diphenylpropene oxide]
Km (mouse sEH [2]): 4.3 µM | Specific activity (mouse sEH [2]): 17000 ± 300.0 nmol/min/mg | kcat (mouse sEH [2]): 18.0 ± 0.3 s⁻¹ | kcat/Km ratio of chicken enzyme, fold lower than human enzyme (Recombinant chicken sEH [3]; compared to human sEH): 20 fold | kcat/Km ratio of chicken enzyme, fold lower than mouse enzyme (Recombinant chicken sEH [3]; compared to mouse sEH): 100 fold | Specific activity (Recombinant chicken sEH [3]; recombinant chicken sEH, mean ± SD of 3 experiments): 823.1 ± 27.3 nmol/min/mg | Km (sEH): 6.2 µM | Specific activity (sEH): 4500 ± 200.0 nmol/min/mg | kcat (sEH): 4.3 ± 0.3 s⁻¹

O=C(Nc1cccc(C(F)(F)F)c1)NC1CCC(OCc2c(F)cccc2F)CC1 (stereo not drawn) [Compound 1285]
IC50 [1, 9]: 4.4 ± 0.1 nM

C=CCOC1CCC(NC(=O)NC23CC4CC(CC(C4)C2)C3)CC1 (stereo not drawn) [Compound 982]
IC50 [1, 9]: 1.7 ± 0.1 nM

CCCCCC1OC1C/C=C\C/C=C\C/C=C\CCCC(=O)O (stereo not drawn) [14,15-EET]
Activity relative to the activity measured with t-DPPO (Recombinant chicken sEH [4]): less than 1/30 | Specific activity (Recombinant chicken sEH [4]): 24.5 ± 2.1 nmol/min/mg | Specific activity (mouse sEH [5]): 1260.0 nmol/min/mg

threo-9,10-phosphonooxy-hydroxy-octadecanoic acid
Hydrolysis of phosphatase substrate by chicken enzyme [6]: did not hydrolyze

O=C(NCCCc1ccccc1)NC1CCC(Oc2ccc(F)cc2)CC1 (stereo not drawn) [Compound 1270]
IC50 [1, 9]: 3.5 ± 0.1 nM

O=C(O)CCCCCCCCCCCNC(=O)NC12CC3CC(CC(C3)C1)C2 [AUDA, 12-(3-Adamantan-1-yl-ureido)dodecanoic acid]
IC50 (Recombinant chicken sEH [7]): 13.7 nM

O=C(NC1CCCCCCC1)NC1CCC(Oc2ccc(F)cc2)CC1 (stereo not drawn) [Compound 1272]
IC50 [1, 9]: 5.1 ± 0.3 nM

O=C(NC1CCCCCC1)NC1CCC(Oc2ccc(F)cc2)CC1 (stereo not drawn) [Compound 1515]
IC50 [1, 9]: 2.6 ± 0.1 nM

CCCCCOC(=O)C1CCC(NC(=O)NC23CC4CC(CC(C4)C2)C3)CC1 (stereo not drawn) [Compound 863]
IC50 [1, 9]: 5.2 ± 0.2 nM

O=C(NC1CCCCCC1)NC1CCC(Oc2ccc(F)cc2)CC1 (stereo not drawn) [Compound 1271]
IC50 [1, 9]: 2.7 ± 0.3 nM

CC(C)=CCOC1CCC(NC(=O)NC23CC4CC(CC(C4)C2)C3)CC1 (stereo not drawn) [Compound 983]
IC50 [1, 9]: 5.3 ± 0.2 nM

O=C(Nc1ccc(C(F)(F)F)cc1)NC1CCC(OCc2c(F)cccc2F)CC1 (stereo not drawn) [Compound 1289]
IC50 [1, 9]: 3.5 ± 0.1 nM

O=C(Nc1cccc(Cl)c1)NC1CCC(OCc2c(F)cccc2F)CC1 (stereo not drawn) [Compound 1302]
IC50 [1, 9]: 2 ± 0.1 nM

CCCCC/C=C\C/C=C\CC1OC1C/C=C\CCCC(=O)O (stereo not drawn) [8,9-EET]
Specific activity (Recombinant chicken sEH [4]): 11.6 ± 0.1 nmol/min/mg | Specific activity (mouse sEH [5]): 370.0 nmol/min/mg

CCCCC/C=C\CC1OC1C/C=C\C/C=C\CCCC(=O)O (stereo not drawn) [11,12-EET]
Specific activity (Recombinant chicken sEH [4]): 12.0 ± 1.2 nmol/min/mg | Specific activity (mouse sEH [5]): 640.0 nmol/min/mg

O=C(O)CCCCCCCCCCCNC(=O)NC12CC3CC(CC(C3)C1)C2 [Compound 700]
IC50 ([1]; Chicken sEH IC50, partially purified recombinant chicken sEH): 12.6 ± 1.6 nM

CCCCCOC(=O)C1CCCC(NC(=O)NC23CC4CC(CC(C4)C2)C3)C1 (stereo not drawn) [Compound 861]
IC50 [1, 9]: 5.7 ± 0.3 nM

B1: Recombinant chicken sEH (Gallus gallus) (protein)
chain: MARRFALFDLGGVLFGPGLQHFLGSCERSYALPRNFLRDVLFAGGSDSPHAKVMRGQITLSQLFLEVDEGCRQHASTAGITLPTTFSIAHVFEEMAAKGTLNAPLLRAASMLRRNGFKTCVFTNNWVDDSMGRLFTSSLLTVVQRHFDLLIESCRVGLHKPDPRIYTYALEVLQAQPQEVIFLDDIGENLKPAREMGMATILVRDTDTVLKELQELSGVQLLQQEEPLPTTCDPATMSHGYVPIRPGVQLHFVEMGHGPAICLCHGFPESWLSWRYQIPALADAGFRVIALEMKGYGESTAPPEIEEYSQEQICKDLTIFLDKLGIPQAVFIGHDWGGAVVWNMALFYPERVRAVASLNTPYRPADPTVDIVETMKSFPMFDYQFYFQEPGVAEAELEKDIGRTLKALIRSTRPEDRLHSVPGLLGVQERGGLLVGFPEDIPESLILHGAELQYYIERFQRSGFRGPLNWYRNMRPNWRWALSAKDRKILMPALMVTAGKDVVLLPSMSKGMEEWIPQLRRGHLEACGHWTQMERPAALNRILVEWLEGLPPDGAMLRVSRL
Km [8]: 25.3 µM
